Tests used:
[1] = molecular target: T1, Beta-3 adrenergic receptor (Homo sapiens, UniProt P13945); assay: Tested in vitro for its ability to stimulate increase in cAMP in CHO cells expressing the cloned human beta-3 adrenergic receptor; format: functional, cell-based
Target sequence in this assay (P13945 whole entry): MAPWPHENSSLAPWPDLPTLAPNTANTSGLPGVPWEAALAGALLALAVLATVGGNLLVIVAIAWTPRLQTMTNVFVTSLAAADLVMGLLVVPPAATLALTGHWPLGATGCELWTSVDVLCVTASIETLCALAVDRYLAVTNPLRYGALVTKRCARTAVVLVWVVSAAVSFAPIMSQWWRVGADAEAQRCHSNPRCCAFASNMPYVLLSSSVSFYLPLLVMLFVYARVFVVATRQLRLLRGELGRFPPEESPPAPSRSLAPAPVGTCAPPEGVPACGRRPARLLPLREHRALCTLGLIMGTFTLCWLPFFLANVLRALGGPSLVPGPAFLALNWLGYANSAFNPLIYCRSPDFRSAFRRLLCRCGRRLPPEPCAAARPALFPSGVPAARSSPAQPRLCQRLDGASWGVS

[2] = molecular target: Beta-1 adrenergic receptor (Homo sapiens, UniProt P08588); assay: Binding affinity for cloned human Beta-1 adrenergic receptor expressed in CHO cells, tested in the presence of I-iodocyanopindolol.; format: cell-based
[3] = molecular target: T1, Beta-3 adrenergic receptor; assay: Tested for Beta3 adrenergic receptor agonist activity by its ability to stimulate adenylyl cyclase activation as % of the maximal stimulation with isoproterenol; format: functional
Target sequence in this assay (P13945 whole entry, looked up): as the sequence (P13945 whole entry) above

[4] = molecular target: Beta-2 adrenergic receptor (Homo sapiens, UniProt P07550); assay: Binding affinity for clone human Beta-2 adrenergic receptor from CHO cell membranes in the presence of I-iodocyanopindolol
Monkey [5] = assay: Effective dose that produced hyperglycerolemia in anesthetized rhesus monkeys; format: functional; conditions: Cercopithecidae, in Macaca mulatta
[6] = Oral bioavailability in dog; format: ADME, organism-based, Canis lupus familiaris; conditions: in vivo
[7] = The compound was tested for half life in dog; format: ADME, organism-based, Canis lupus familiaris; conditions: in vivo
Monkey [8] = assay: Compound was tested for separation between lipolytic potency and tachycardia, as heart rate, effect was determined at highest dose of 10 mg/kg in rhesus monkeys; format: functional, Cercopithecidae
[9] = The half life was determined; format: ADME, organism-based, Canis lupus familiaris; conditions: dog, in vivo

Beta-2 adrenergic receptor, sequence (P07550 whole entry): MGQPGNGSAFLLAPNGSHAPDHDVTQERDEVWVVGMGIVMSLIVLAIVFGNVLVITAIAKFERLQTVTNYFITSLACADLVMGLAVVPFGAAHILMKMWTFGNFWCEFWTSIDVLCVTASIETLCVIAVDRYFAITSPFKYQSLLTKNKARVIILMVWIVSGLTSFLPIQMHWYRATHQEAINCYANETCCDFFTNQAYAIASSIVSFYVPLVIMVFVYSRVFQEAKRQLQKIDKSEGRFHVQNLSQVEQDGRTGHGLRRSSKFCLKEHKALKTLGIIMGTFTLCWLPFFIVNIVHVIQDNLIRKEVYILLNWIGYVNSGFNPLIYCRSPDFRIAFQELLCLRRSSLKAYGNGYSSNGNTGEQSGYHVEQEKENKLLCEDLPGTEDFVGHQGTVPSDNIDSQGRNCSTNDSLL
Beta-1 adrenergic receptor, sequence (P08588 whole entry): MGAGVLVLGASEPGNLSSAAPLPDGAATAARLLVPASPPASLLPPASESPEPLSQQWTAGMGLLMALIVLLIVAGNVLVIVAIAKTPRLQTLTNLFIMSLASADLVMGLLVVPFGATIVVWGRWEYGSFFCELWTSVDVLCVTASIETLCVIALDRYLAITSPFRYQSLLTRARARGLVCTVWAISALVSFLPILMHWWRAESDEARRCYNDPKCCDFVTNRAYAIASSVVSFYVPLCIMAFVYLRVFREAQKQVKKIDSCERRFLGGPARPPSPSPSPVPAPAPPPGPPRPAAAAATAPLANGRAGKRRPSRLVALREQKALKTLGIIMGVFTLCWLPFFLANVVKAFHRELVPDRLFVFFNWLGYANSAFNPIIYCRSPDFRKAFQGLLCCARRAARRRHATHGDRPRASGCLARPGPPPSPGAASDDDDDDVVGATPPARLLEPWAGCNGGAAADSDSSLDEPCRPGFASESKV

SMILES: O=C(c1ccc(F)cc1)c1cnn(-c2ccc(S(=O)(=O)Nc3ccc(CCNC[C@H](O)c4cccnc4)cc3)cc2)n1
- EC50 [1]: 6.4 nM

SMILES: O=S(=O)(Nc1ccc(CCNC[C@H](O)c2cccnc2)cc1)c1ccc(-n2ncc(Cc3ccc(F)cc3)n2)cc1
- IC50 [2]: 2500 nM
- EC50 [1]: 14 nM
- Activation [3]: 75%
- IC50 [4]: 780 nM

SMILES: O=S(=O)(Nc1ccc(CCNC[C@H](O)c2cccnc2)cc1)c1ccc(-n2ncc(COc3ccc(F)c(F)c3)n2)cc1
- IC50 [2]: 930 nM
- EC50 [1]: 10 nM
- Activation [3]: 63%
- IC50 [4]: 690 nM

SMILES: O=S(=O)(Nc1ccc(CCNC[C@H](O)c2cccnc2)cc1)c1ccc(-n2ncc(Cc3ccc(C(F)(F)F)cc3)n2)cc1
- ED50 (Monkey [5]): 0.36 mg/kg
- IC50 [2]: 20000 nM
- bioavailability ([6]; read-out: Activity): 25%
- half-life [7]: 6 h
- EC50 [1]: 3.1 nM
- Activation [3]: 85%
- Heart rate (Monkey [8]): <5%
- IC50 [4]: 4700 nM

SMILES: O=S(=O)(Nc1ccc(CCNC[C@H](O)c2cccnc2)cc1)c1ccc(-n2ncc(COc3ccc(C(F)(F)F)cc3)n2)cc1
- IC50 [2]: 920 nM
- EC50 [1]: 11 nM
- Activation [3]: 72%
- IC50 [4]: 730 nM

SMILES: O=S(=O)(Nc1ccc(CCNC[C@H](O)c2cccnc2)cc1)c1ccc(-n2ncc(-c3ccc(C(F)(F)F)cc3)n2)cc1
- IC50 [2]: 21000 nM
- bioavailability [6]: 18%
- EC50 [1]: 14 nM
- Activation [3]: 90%
- half-life [9]: 15 h
- IC50 [4]: 21000 nM

SMILES: O=S(=O)(Nc1ccc(CCNC[C@H](O)c2cccnc2)cc1)c1ccc(-n2ncc(Cc3ccc(F)c(F)c3)n2)cc1
- IC50 [2]: 2000 nM
- bioavailability ([6]; read-out: Activity): 38%
- EC50 [1]: 7.2 nM
- Activation [3]: 86%
- half-life [9]: 4 h
- IC50 [4]: 1000 nM

SMILES: O=S(=O)(Nc1ccc(CCNC[C@H](O)c2cccnc2)cc1)c1ccc(-n2ncc(-c3ccc(F)cc3)n2)cc1
- IC50 [2]: 40000 nM
- EC50 [1]: 24 nM
- Activation [3]: 91%
- IC50 [4]: 9300 nM

SMILES: O=S(=O)(Nc1ccc(CCNC[C@H](O)c2cccnc2)cc1)c1ccc(-n2ncc(Cc3c(F)cc(F)cc3F)n2)cc1
- IC50 [2]: 10000 nM
- EC50 [1]: 48 nM
- Activation [3]: 83%
- IC50 [4]: 8800 nM

SMILES: COc1ccc(-c2cnn(-c3ccc(S(=O)(=O)Nc4ccc(CCNC[C@H](O)c5cccnc5)cc4)cc3)n2)cc1F
- IC50 [2]: 5600 nM
- EC50 [1]: 22 nM
- Activation [3]: 80%
- IC50 [4]: 2500 nM

SMILES: O=S(=O)(Nc1ccc(CCNC[C@H](O)c2cccnc2)cc1)c1ccc(-n2ncc(-c3ccc(OC(F)(F)F)cc3)n2)cc1
- IC50 [2]: 1300 nM
- EC50 [1]: 18 nM
- Activation [3]: 84%
- IC50 [4]: 1600 nM

SMILES: O=S(=O)(Nc1ccc(CCNC[C@H](O)c2cccnc2)cc1)c1ccc(-n2ncc(C(O)c3ccc(F)cc3)n2)cc1 (stereo partly specified)
- EC50 [1]: 3.3 nM

SMILES: CCCCCCn1ccn(-c2ccc(S(=O)(=O)Nc3ccc(CCNC[C@H](O)c4cccnc4)cc3)cc2)c1=O [L-764646]
- bioavailability [6]: 7%

SMILES: O=S(=O)(Nc1ccc(CCNC[C@H](O)c2cccnc2)cc1)c1ccc(-n2ncc(-c3ccc(F)c(F)c3)n2)cc1
- IC50 [2]: 2600 nM
- EC50 [1]: 14 nM
- Activation [3]: 82%
- IC50 [4]: 1300 nM

SMILES: O=S(=O)(Nc1ccc(CCNC[C@H](O)c2cccnc2)cc1)c1ccc(-n2ncc(Cc3c(F)cccc3F)n2)cc1
- IC50 [2]: 28000 nM
- EC50 [1]: 24 nM
- Activation [3]: 84%
- IC50 [4]: 5000 nM

SMILES: CCCCCCNC(=O)Nc1ccc(S(=O)(=O)Nc2ccc(CCNC[C@H](O)c3cccnc3)cc2)cc1
- bioavailability [6]: < 1%

SMILES: O=S(=O)(Nc1ccc(CCNC[C@H](O)c2cccnc2)cc1)c1ccc(-n2ncc(Cc3cccc(F)c3)n2)cc1
- IC50 [2]: 3000 nM
- EC50 [1]: 6.4 nM
- Activation [3]: 87%
- IC50 [4]: 380 nM

SMILES: O=S(=O)(Nc1ccc(CCNC[C@H](O)c2cccnc2)cc1)c1ccc(-n2ncc(-c3cccc(F)c3)n2)cc1
- IC50 [2]: 8700 nM
- EC50 [1]: 52 nM
- Activation [3]: 89%
- IC50 [4]: 8800 nM

SMILES: O=S(=O)(Nc1ccc(CCNC[C@H](O)c2cccnc2)cc1)c1ccc(-n2ncc(Cc3ccc(OC(F)(F)F)cc3)n2)cc1
- IC50 [2]: 2600 nM
- EC50 [1]: 4.1 nM
- Activation [3]: 91%
- IC50 [4]: 860 nM

SMILES: O=S(=O)(Nc1ccc(CCNC[C@H](O)c2cccnc2)cc1)c1ccc(-n2ncc(COc3ccc(OC(F)(F)F)cc3)n2)cc1
- IC50 [2]: 6200 nM
- EC50 [1]: 14 nM
- Activation [3]: 75%
- IC50 [4]: 620 nM
